Results as given in ChEMBL document CHEMBL5576038, “Design of a novel long-acting dual GLP-1/GIP receptor agonist” (Bioorg Med Chem, 2024).
Where a SMILES comes first, the peptide text is derived from it. [ ]: non-standard residue; d: D form. The star is where a group is joined. X1 = N[C@@H](CCCCNC(=O)CC[C@H](NC(=O)CCCCCCCCCCCCCCCCCCC(=O)O)C(=O)O)C(=O)NCCCC[C@H](N)C(=O)N[C@@H](CCCCNC(=O)C*)C(=O)O; X7 = O=C(O)CCCCCCCCCCCCCCCCCCC(=O)NCCOCCOCC(=O)N[C@@H](CCC(=O)N[C@H](CCC(=O)N[C@H](CCCCNC(=O)C*)C(=O)O)C(=O)O)C(=O)O; X5 = O=C(O)CCCCCCCCCCCCCCCCCCC(=O)N[C@@H](CCC(=O)NCCOCCOCC(=O)NCCOCCOCC(=O)N[C@@H](CCCCNC(=O)C*)C(=O)O)C(=O)O; X8 = O=C(O)CCCCCCCCCCCCCCCCC(=O)N[C@@H](CCC(=O)NCCOCCOCC(=O)NCCOCCOCC(=O)N[C@@H](CCCCNC(=O)C*)C(=O)O)C(=O)O; Aib = CC(C)(N)C(=O)O

Experiments:
[1] = biological target: T1, Gastric inhibitory polypeptide receptor (Homo sapiens, UniProt P48546); assay: Agonist activity at human GIPR expressed in CHO cells assessed as increase in cAMP production incubated for 30 mins by Eu-cAMP tracer based microplate reader analysis; type: functional, cell-based
T1 sequence (P48546 whole entry): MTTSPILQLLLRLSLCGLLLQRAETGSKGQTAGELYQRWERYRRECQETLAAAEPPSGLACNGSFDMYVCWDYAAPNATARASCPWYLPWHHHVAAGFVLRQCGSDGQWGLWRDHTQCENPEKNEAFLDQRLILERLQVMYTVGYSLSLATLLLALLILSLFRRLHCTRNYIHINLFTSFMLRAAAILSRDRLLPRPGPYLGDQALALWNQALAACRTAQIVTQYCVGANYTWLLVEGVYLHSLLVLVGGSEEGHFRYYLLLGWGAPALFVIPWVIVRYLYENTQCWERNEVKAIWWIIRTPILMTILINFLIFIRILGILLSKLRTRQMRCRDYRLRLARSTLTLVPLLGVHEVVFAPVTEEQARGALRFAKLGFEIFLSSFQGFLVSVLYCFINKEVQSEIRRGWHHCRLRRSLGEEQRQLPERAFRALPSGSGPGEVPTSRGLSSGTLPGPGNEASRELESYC

[2] = biological target: Glucagon-like peptide 1 receptor (Homo sapiens, UniProt P43220); assay: Agonist activity at human GLP-1R expressed in CHO cells assessed as increase in cAMP production incubated for 30 mins by Eu-cAMP tracer based microplate reader analysis; type: functional, cell-based
Chain of Glucagon-like peptide 1 receptor (P43220 whole entry): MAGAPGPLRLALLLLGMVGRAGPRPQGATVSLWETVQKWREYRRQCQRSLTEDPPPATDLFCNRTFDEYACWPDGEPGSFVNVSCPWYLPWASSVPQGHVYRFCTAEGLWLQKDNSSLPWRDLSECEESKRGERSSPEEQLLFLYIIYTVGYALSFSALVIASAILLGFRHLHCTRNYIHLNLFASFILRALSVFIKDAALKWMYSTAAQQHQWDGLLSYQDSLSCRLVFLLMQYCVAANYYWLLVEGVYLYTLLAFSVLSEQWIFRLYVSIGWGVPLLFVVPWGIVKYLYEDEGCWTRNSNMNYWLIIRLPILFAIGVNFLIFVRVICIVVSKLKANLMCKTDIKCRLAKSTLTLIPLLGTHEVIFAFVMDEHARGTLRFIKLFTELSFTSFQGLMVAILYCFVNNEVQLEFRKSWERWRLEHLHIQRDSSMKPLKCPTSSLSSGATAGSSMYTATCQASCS

SMILES	EC50 [1]	EC50 [2]	EC50 ([1]; cho)	EC50 ([2]; cho)
CC(C)C[C@H](NC(=O)[C@H](CC(C)C)NC(=O)[C@H](Cc1c[nH]c2ccccc12)NC(=O)[C@H](CCC(N)=O)NC(=O)[C@@H](NC(=O)[C@H](Cc1ccccc1)NC(=O)[C@H](CC(C)C)NC(=O)[C@H](CCCCN)NC(=O)[C@H](C)NC(=O)[C@H](C)NC(=O)[C@H](CCC(N)=O)NC(=O)[C@H](CCCCN)NC(=O)[C@H](CCC(=O)O)NC(=O)[C@H](CC(C)C)NC(=O)[C@H](CSCC(=O)NCCCC[C@H](NC(=O)[C@@H](N)CCCCNC(=O)[C@@H](N)CCCCNC(=O)CC[C@H](NC(=O)CCCCCCCCCCCCCCCCCCC(=O)O)C(=O)O)C(=O)O)NC(=O)[C@H](Cc1ccc(O)cc1)NC(=O)[C@H](CO)NC(=O)[C@H](Cc1ccc(O)cc1)NC(=O)[C@H](CC(=O)O)NC(=O)[C@H](CO)NC(=O)[C@@H](NC(=O)[C@H](Cc1ccccc1)NC(=O)[C@@H](NC(=O)CNC(=O)[C@H](CCC(=O)O)NC(=O)C(C)(C)NC(=O)[C@@H](N)Cc1ccc(O)cc1)[C@@H](C)O)[C@@H](C)O)C(C)C)C(=O)N[C@@H](C)C(=O)NCC(=O)NCC(=O)N1CCC[C@H]1C(=O)N[C@@H](CO)C(=O)N[C@@H](CO)C(=O)NCC(=O)N[C@@H](C)C(=O)N1CCC[C@H]1C(=O)N1CCC[C@H]1C(=O)N1CCC[C@H]1C(=O)N[C@@H](CO)C(N)=O (H-Y[Aib]EGTFTSDYSYC(X1)LEKQAAKLFVQWLLAGGPSSGAPPPS-NH2)	0.14 nM	0.46 nM	–	–
CC(C)C[C@H](NC(=O)[C@H](CC(C)C)NC(=O)[C@H](Cc1c[nH]c2ccccc12)NC(=O)[C@H](CCC(N)=O)NC(=O)[C@@H](NC(=O)[C@H](Cc1ccccc1)NC(=O)[C@H](CC(C)C)NC(=O)[C@H](CCCCN)NC(=O)[C@H](C)NC(=O)[C@H](C)NC(=O)[C@H](CCC(N)=O)NC(=O)[C@H](CCCCN)NC(=O)[C@H](CCC(=O)O)NC(=O)[C@H](CC(C)C)NC(=O)[C@H](CSCC(=O)NCCCC[C@H](NC(=O)COCCOCCNC(=O)COCCOCCNC(=O)CC[C@H](NC(=O)CCCCCCCCCCCCCCCCCCC(=O)O)C(=O)O)C(=O)O)NC(=O)[C@H](Cc1ccc(O)cc1)NC(=O)[C@H](CO)NC(=O)[C@H](Cc1ccc(O)cc1)NC(=O)[C@H](CC(=O)O)NC(=O)[C@H](CO)NC(=O)[C@@H](NC(=O)[C@H](Cc1ccccc1)NC(=O)[C@@H](NC(=O)CNC(=O)[C@H](CCC(=O)O)NC(=O)C(C)(C)NC(=O)[C@@H](N)Cc1ccc(O)cc1)[C@@H](C)O)[C@@H](C)O)C(C)C)C(=O)N[C@@H](C)C(=O)NCC(=O)NCC(=O)N1CCC[C@H]1C(=O)N[C@@H](CO)C(=O)N[C@@H](CO)C(=O)NCC(=O)N[C@@H](C)C(=O)N1CCC[C@H]1C(=O)N1CCC[C@H]1C(=O)N1CCC[C@H]1C(=O)N[C@@H](CO)C(N)=O (H-Y[Aib]EGTFTSDYSYC(X5)LEKQAAKLFVQWLLAGGPSSGAPPPS-NH2)	0.42 nM	1.34 nM	–	–
CC(C)C[C@H](NC(=O)[C@H](CC(C)C)NC(=O)[C@H](Cc1c[nH]c2ccccc12)NC(=O)[C@H](CCC(N)=O)NC(=O)[C@@H](NC(=O)[C@H](Cc1ccccc1)NC(=O)[C@H](CC(C)C)NC(=O)[C@H](CCCCN)NC(=O)[C@H](C)NC(=O)[C@H](C)NC(=O)[C@H](CCC(N)=O)NC(=O)[C@H](CCCCN)NC(=O)[C@H](CCC(=O)O)NC(=O)[C@H](CC(C)C)NC(=O)[C@H](CSCC(=O)NCCCC[C@H](NC(=O)COCCOCCNC(=O)COCCOCCNC(=O)CC[C@H](NC(=O)CCCCCCCCCCCCCCCCC(=O)O)C(=O)O)C(=O)O)NC(=O)[C@H](Cc1ccc(O)cc1)NC(=O)[C@H](CO)NC(=O)[C@H](Cc1ccc(O)cc1)NC(=O)[C@H](CC(=O)O)NC(=O)[C@H](CO)NC(=O)[C@@H](NC(=O)[C@H](Cc1ccccc1)NC(=O)[C@@H](NC(=O)CNC(=O)[C@H](CCC(=O)O)NC(=O)C(C)(C)NC(=O)[C@@H](N)Cc1ccc(O)cc1)[C@@H](C)O)[C@@H](C)O)C(C)C)C(=O)N[C@@H](C)C(=O)NCC(=O)NCC(=O)N1CCC[C@H]1C(=O)N[C@@H](CO)C(=O)N[C@@H](CO)C(=O)NCC(=O)N[C@@H](C)C(=O)N1CCC[C@H]1C(=O)N1CCC[C@H]1C(=O)N1CCC[C@H]1C(=O)N[C@@H](CO)C(N)=O (H-Y[Aib]EGTFTSDYSYC(X8)LEKQAAKLFVQWLLAGGPSSGAPPPS-NH2)	1.31 nM	1.75 nM	–	–
CC(C)C[C@H](NC(=O)[C@H](CC(C)C)NC(=O)[C@H](Cc1c[nH]c2ccccc12)NC(=O)[C@H](CCC(N)=O)NC(=O)[C@@H](NC(=O)[C@H](Cc1ccccc1)NC(=O)[C@H](CC(C)C)NC(=O)[C@H](CCCCN)NC(=O)[C@H](C)NC(=O)[C@H](C)NC(=O)[C@H](CCC(N)=O)NC(=O)[C@H](CCCCN)NC(=O)[C@H](CCC(=O)O)NC(=O)[C@H](CC(C)C)NC(=O)[C@H](CS)NC(=O)[C@H](Cc1ccc(O)cc1)NC(=O)[C@H](CO)NC(=O)[C@H](Cc1ccc(O)cc1)NC(=O)[C@H](CC(=O)O)NC(=O)[C@H](CO)NC(=O)[C@@H](NC(=O)[C@H](Cc1ccccc1)NC(=O)[C@@H](NC(=O)CNC(=O)[C@H](CCC(=O)O)NC(=O)C(C)(C)NC(=O)[C@@H](N)Cc1ccc(O)cc1)[C@@H](C)O)[C@@H](C)O)C(C)C)C(=O)N[C@@H](C)C(=O)NCC(=O)NCC(=O)N1CCC[C@H]1C(=O)N[C@@H](CO)C(=O)N[C@@H](CO)C(=O)NCC(=O)N[C@@H](C)C(=O)N1CCC[C@H]1C(=O)N1CCC[C@H]1C(=O)N1CCC[C@H]1C(=O)N[C@@H](CO)C(N)=O (H-Y[Aib]EGTFTSDYSYCLEKQAAKLFVQWLLAGGPSSGAPPPS-NH2)	0.39 nM	0.42 nM	–	–
CC(C)C[C@H](NC(=O)[C@H](CC(C)C)NC(=O)[C@H](Cc1c[nH]c2ccccc12)NC(=O)[C@H](CCC(N)=O)NC(=O)[C@@H](NC(=O)[C@H](Cc1ccccc1)NC(=O)[C@H](CC(C)C)NC(=O)[C@H](CCCCN)NC(=O)[C@H](C)NC(=O)[C@H](C)NC(=O)[C@H](CCC(N)=O)NC(=O)[C@H](CSCC(=O)NCCCC[C@@H](NC(=O)CC[C@@H](NC(=O)CC[C@H](NC(=O)COCCOCCNC(=O)CCCCCCCCCCCCCCCCCCC(=O)O)C(=O)O)C(=O)O)C(=O)O)NC(=O)[C@H](CCC(=O)O)NC(=O)[C@H](CC(C)C)NC(=O)[C@H](Cc1ccc(O)cc1)NC(=O)[C@H](Cc1ccc(O)cc1)NC(=O)[C@H](CO)NC(=O)[C@H](Cc1ccc(O)cc1)NC(=O)[C@H](CC(=O)O)NC(=O)[C@H](CO)NC(=O)[C@@H](NC(=O)[C@H](Cc1ccccc1)NC(=O)[C@@H](NC(=O)CNC(=O)[C@H](CCC(=O)O)NC(=O)C(C)(C)NC(=O)[C@@H](N)Cc1ccc(O)cc1)[C@@H](C)O)[C@@H](C)O)C(C)C)C(=O)N[C@@H](C)C(=O)NCC(=O)NCC(=O)N1CCC[C@H]1C(=O)N[C@@H](CO)C(=O)N[C@@H](CO)C(=O)NCC(=O)N[C@@H](C)C(=O)N1CCC[C@H]1C(=O)N1CCC[C@H]1C(=O)N1CCC[C@H]1C(=O)N[C@@H](CO)C(N)=O (H-Y[Aib]EGTFTSDYSYYLEC(X7)QAAKLFVQWLLAGGPSSGAPPPS-NH2)	–	–	0.2 nM	0.51 nM
CC(C)C[C@H](NC(=O)[C@H](CC(C)C)NC(=O)[C@H](Cc1c[nH]c2ccccc12)NC(=O)[C@H](CCC(N)=O)NC(=O)[C@@H](NC(=O)[C@H](Cc1ccccc1)NC(=O)[C@H](CC(C)C)NC(=O)[C@H](CCCCN)NC(=O)[C@H](C)NC(=O)[C@H](C)NC(=O)[C@H](CCC(N)=O)NC(=O)[C@H](CS)NC(=O)[C@H](CCC(=O)O)NC(=O)[C@H](CC(C)C)NC(=O)[C@H](Cc1ccc(O)cc1)NC(=O)[C@H](Cc1ccc(O)cc1)NC(=O)[C@H](CO)NC(=O)[C@H](Cc1ccc(O)cc1)NC(=O)[C@H](CC(=O)O)NC(=O)[C@H](CO)NC(=O)[C@@H](NC(=O)[C@H](Cc1ccccc1)NC(=O)[C@@H](NC(=O)CNC(=O)[C@H](CCC(=O)O)NC(=O)C(C)(C)NC(=O)[C@@H](N)Cc1ccc(O)cc1)[C@@H](C)O)[C@@H](C)O)C(C)C)C(=O)N[C@@H](C)C(=O)NCC(=O)NCC(=O)N1CCC[C@H]1C(=O)N[C@@H](CO)C(=O)N[C@@H](CO)C(=O)NCC(=O)N[C@@H](C)C(=O)N1CCC[C@H]1C(=O)N1CCC[C@H]1C(=O)N1CCC[C@H]1C(=O)N[C@@H](CO)C(N)=O (H-Y[Aib]EGTFTSDYSYYLECQAAKLFVQWLLAGGPSSGAPPPS-NH2)	–	–	1.87 nM	0.6 nM
CC(C)C[C@H](NC(=O)[C@H](CC(C)C)NC(=O)[C@H](Cc1c[nH]c2ccccc12)NC(=O)[C@H](CCC(N)=O)NC(=O)[C@@H](NC(=O)[C@H](Cc1ccccc1)NC(=O)[C@H](CC(C)C)NC(=O)[C@H](CSCC(=O)NCCCC[C@H](NC(=O)COCCOCCNC(=O)COCCOCCNC(=O)CC[C@H](NC(=O)CCCCCCCCCCCCCCCCCCC(=O)O)C(=O)O)C(=O)O)NC(=O)[C@H](C)NC(=O)[C@H](C)NC(=O)[C@H](CCC(N)=O)NC(=O)[C@H](CCCCN)NC(=O)[C@H](CCC(=O)O)NC(=O)[C@H](CC(C)C)NC(=O)[C@H](Cc1ccc(O)cc1)NC(=O)[C@H](Cc1ccc(O)cc1)NC(=O)[C@H](CO)NC(=O)[C@H](Cc1ccc(O)cc1)NC(=O)[C@H](CC(=O)O)NC(=O)[C@H](CO)NC(=O)[C@@H](NC(=O)[C@H](Cc1ccccc1)NC(=O)[C@@H](NC(=O)CNC(=O)[C@H](CCC(=O)O)NC(=O)C(C)(C)NC(=O)[C@@H](N)Cc1ccc(O)cc1)[C@@H](C)O)[C@@H](C)O)C(C)C)C(=O)N[C@@H](C)C(=O)NCC(=O)NCC(=O)N1CCC[C@H]1C(=O)N[C@@H](CO)C(=O)N[C@@H](CO)C(=O)NCC(=O)N[C@@H](C)C(=O)N1CCC[C@H]1C(=O)N1CCC[C@H]1C(=O)N1CCC[C@H]1C(=O)N[C@@H](CO)C(N)=O (H-Y[Aib]EGTFTSDYSYYLEKQAAC(X5)LFVQWLLAGGPSSGAPPPS-NH2)	1.31 nM	0.49 nM	–	–
